Data reported in US8178506B2, “Oligomeric compounds and compositions for use in modulation of small non-coding RNAs” (Regulus Therapeutics Inc., priority 2003, dated 2012).
In the oligonucleotide strings, read from the 5' end, every base follows the letter of its sugar. An asterisk marks phosphorothioate; unmarked linkages are phosphodiester. Other units and linkages are bracketed, terminal groups are in braces. A string of capitals states the bases alone. e = 2'-O-(2-methoxyethyl) (MOE); [5mC] = 5-methylcytosine; d = 2'-deoxy (DNA)

Assays:
Type in all cases: cell-based, human
adipocytes = assay: Triglyceride accumulation assay in adipocytes; details: for Triglycerides: differentiating adipocytes day 10 post-induction, 24 hours after treatment
aP2 = aP2 mRNA expression in adipocytes (real-time PCR); details: for aP2 mRNA: differentiating adipocytes transfected with oligomeric compound, Table 75
HSL = HSL mRNA expression in adipocytes (real-time PCR)
Glut4 = Glut4 mRNA expression in adipocytes (real-time PCR)
PPARγ = PPARγ mRNA expression in adipocytes (real-time PCR); details: for PPAR-gamma mRNA: differentiating adipocytes day 10 post-induction, 24 hours after treatment
[1] = Table 20, adipocyte differentiation assay as in Example 13
[2] = differentiating adipocytes transfected with oligomeric compound, Table 75
[3] = Table 18, differentiating adipocytes, control = treatment with ISIS 342673
[4] = Table 17, differentiating adipocytes, control = treatment with ISIS 342673
[5] = 50 nM, differentiating adipocytes day 10 post-induction, 24 hours after treatment
[6] = 100 nM, differentiating adipocytes day 10 post-induction, 24 hours after treatment
[7] = 200 nM, differentiating adipocytes day 10 post-induction, 24 hours after treatment
[8] = 300 nM, differentiating adipocytes day 10 post-induction, 24 hours after treatment

Substance: 340927 (antisense eT*eG*eA*eG*e[5mC]*dT*dA*d[5mC]*dA*dG*dT*dG*d[5mC]*dT*dT*e[5mC]*eA*eT*e[5mC]*eT*e[5mC]*eA) [compound 340927]
- TG (adipocytes; [1]): 0.65
- AP2 (aP2; [1]): 0.77
- HSL (HSL; [1]): 0.73
- Glut4 (Glut4; [1]): 0.54
- PPAR gamma (PPARγ; [1]): 0.36

Substance: 341800 (antisense AAGCCCAAAAGGAGAAUUCUUUG; all 2'-MOE, all phosphorothioate, methylation of C and T or U not given here) [compound 341800]
- TG (triglyceride accumulation) (adipocytes; [2]): 18 percentage of untreated control (UTC)
- aP2 mRNA (aP2): 50 percentage of untreated control (UTC)
- HSL mRNA (HSL; [2]): 42 percentage of untreated control (UTC)
- GLUT4 mRNA (Glut4; [2]): 28 percentage of untreated control (UTC)
- PPAR gamma mRNA (PPARγ; [2]): 61 percentage of untreated control (UTC)

Substance: 341803 (antisense CCACACACTTCCTTACATTCCA; all 2'-MOE, all phosphorothioate, methylation of C not given here) [compound 341803]
- TG (triglyceride accumulation) (adipocytes; [3]): 85.9 percentage of control
- AP2 mRNA (aP2; [3]): 77.3 percentage of control
- aP2 mRNA (aP2): 85 percentage of untreated control (UTC)
- HSL mRNA (HSL; [3]): 75.5 percentage of control
- HSL mRNA (HSL; [2]): 79 percentage of untreated control (UTC)
- GLUT4 mRNA (Glut4; [3]): 86.8 percentage of control
- GLUT4 mRNA (Glut4; [2]): 73 percentage of untreated control (UTC)
- PPAR gamma mRNA (PPARγ; [3]): 71.2 percentage of control
- PPAR gamma mRNA (PPARγ; [2]): 68 percentage of untreated control (UTC)

Substance: 341804 (antisense ATCTGCACTGTCAGCACTTT; all 2'-MOE, all phosphorothioate, methylation of C not given here) [compound 341804]
- TG (triglyceride accumulation) (adipocytes; [3]): 60.9 percentage of control
- AP2 mRNA (aP2; [3]): 70.8 percentage of control
- aP2 mRNA (aP2): 78 percentage of untreated control (UTC)
- HSL mRNA (HSL; [3]): 71.6 percentage of control
- HSL mRNA (HSL; [2]): 75 percentage of untreated control (UTC)
- GLUT4 mRNA (Glut4; [3]): 73.6 percentage of control
- GLUT4 mRNA (Glut4; [2]): 62 percentage of untreated control (UTC)
- PPAR gamma mRNA (PPARγ; [3]): 74.1 percentage of control
- PPAR gamma mRNA (PPARγ; [2]): 71 percentage of untreated control (UTC)

Substance: 341805 (antisense ACCCTTATCAGTTCTCCGTCCA; all 2'-MOE, all phosphorothioate, methylation of C not given here) [compound 341805]
- TG (triglyceride accumulation) (adipocytes; [3]): 78.1 percentage of control
- AP2 mRNA (aP2; [3]): 81.9 percentage of control
- aP2 mRNA (aP2): 90 percentage of untreated control (UTC)
- HSL mRNA (HSL; [3]): 81.8 percentage of control
- HSL mRNA (HSL; [2]): 86 percentage of untreated control (UTC)
- GLUT4 mRNA (Glut4; [3]): 88.2 percentage of control
- GLUT4 mRNA (Glut4; [2]): 74 percentage of untreated control (UTC)
- PPAR gamma mRNA (PPARγ; [3]): 80.4 percentage of control
- PPAR gamma mRNA (PPARγ; [2]): 77 percentage of untreated control (UTC)

Substance: 341806 (antisense GCCAATATTTCTGTGCTGCTA; all 2'-MOE, all phosphorothioate, methylation of C not given here) [compound 341806]
- TG (triglyceride accumulation) (adipocytes; [3]): 83.2 percentage of control
- AP2 mRNA (aP2; [3]): 75.8 percentage of control
- aP2 mRNA (aP2): 83 percentage of untreated control (UTC)
- HSL mRNA (HSL; [3]): 73.4 percentage of control
- HSL mRNA (HSL; [2]): 77 percentage of untreated control (UTC)
- GLUT4 mRNA (Glut4; [3]): 69.4 percentage of control
- GLUT4 mRNA (Glut4; [2]): 58 percentage of untreated control (UTC)
- PPAR gamma mRNA (PPARγ; [3]): 72.6 percentage of control
- PPAR gamma mRNA (PPARγ; [2]): 70 percentage of untreated control (UTC)

Substance: 341807 (antisense CTGGGACTTTGTAGGCCAGTT; all 2'-MOE, all phosphorothioate, methylation of C not given here) [compound 341807]
- TG (triglyceride accumulation) (adipocytes; [3]): 114.1 percentage of control
- AP2 mRNA (aP2; [3]): 74.8 percentage of control
- aP2 mRNA (aP2): 82 percentage of untreated control (UTC)
- HSL mRNA (HSL; [3]): 96.8 percentage of control
- HSL mRNA (HSL; [2]): 102 percentage of untreated control (UTC)
- GLUT4 mRNA (Glut4; [3]): 119.5 percentage of control
- GLUT4 mRNA (Glut4; [2]): 101 percentage of untreated control (UTC)
- PPAR gamma mRNA (PPARγ; [3]): 86.2 percentage of control
- PPAR gamma mRNA (PPARγ; [2]): 83 percentage of untreated control (UTC)

Substance: 342673 (antisense eA*eG*eA*e[5mC]*eT*eA*eG*e[5mC]*eG*eG*eT*eA*eT*e[5mC]*eT*eT*eT*eA*eT*e[5mC]*e[5mC]*e[5mC]) [compound 342673]
- Triglycerides (adipocytes; 50 nM): 94.2 % UTC
- Triglycerides (adipocytes; 100 nM): 105.3 % UTC
- Triglycerides (adipocytes; 200 nM): 98.3 % UTC
- Triglycerides (adipocytes; 300 nM): 108.2 % UTC
- TG (triglyceride accumulation) (adipocytes; [4]): 100.0 percentage of control
- TG (triglyceride accumulation) (adipocytes; [3]): 100 percentage of control
- AP2 mRNA (aP2; [5]): 82.4 % UTC
- AP2 mRNA (aP2; [6]): 90.3 % UTC
- AP2 mRNA (aP2; [7]): 81.1 % UTC
- AP2 mRNA (aP2; [8]): 70.9 % UTC
- AP2 mRNA (aP2; [4]): 100.0 percentage of control
- AP2 mRNA (aP2; [3]): 100 percentage of control
- HSL mRNA (HSL; [5]): 92.0 % UTC
- HSL mRNA (HSL; [6]): 95.6 % UTC
- HSL mRNA (HSL; [7]): 97.3 % UTC
- HSL mRNA (HSL; [8]): 85.2 % UTC
- HSL mRNA (HSL; [4]): 100.0 percentage of control
- HSL mRNA (HSL; [3]): 100 percentage of control
- GLUT4 mRNA (Glut4; [5]): 94.9 % UTC
- GLUT4 mRNA (Glut4; [6]): 90.7 % UTC
- GLUT4 mRNA (Glut4; [7]): 97.6 % UTC
- GLUT4 mRNA (Glut4; [8]): 102.7 % UTC
- GLUT4 mRNA (Glut4; [4]): 100.0 percentage of control
- GLUT4 mRNA (Glut4; [3]): 100 percentage of control
- PPAR-gamma mRNA (PPARγ; 50 nM): 77.5 % UTC
- PPAR-gamma mRNA (PPARγ; 100 nM): 89.9 % UTC
- PPAR-gamma mRNA (PPARγ; 200 nM): 94.6 % UTC
- PPAR-gamma mRNA (PPARγ; 300 nM): 85.8 % UTC
- PPAR gamma mRNA (PPARγ; [4]): 100.0 percentage of control
- PPAR gamma mRNA (PPARγ; [3]): 100 percentage of control
